Measurements taken from US20240299376A1, “METHOD OF TREATING A CONDITION USING A […] EFFECTIVE DOSE OF 1-(1-OXO-1,2-DIHYDROISOQUINOLIN-5-YL)-5-(TRIFLUOROMETHYL)-N-(2-(TRIFLUOROMETHYL)PYRIDIN-4-YL)-1H-PYRAZOLE-4-CARBOXAMIDE” (Janssen Pharmaceutica NV, priority 2021, published 2024).
Where “and” joins values, the source holds several entries; their conditions need not be identical. Equal values may be shown once. Entries after “also recorded” stand apart in the source; their conditions may differ. Read-outs that look alike come from different tables or passages of the source. Marks after values point to notes of the source that are not given here.

Assay: FIH study 67856633LYM1001 plasma pharmacokinetics
Format: in vivo, human
Conditions: for AUC: read-out: AUCτ
From the text: The study consists of a dose escalation phase (Part 1), to determine the recommended Phase 2 dose(s) (RP2D[s]), followed by an expansion phase at the RP2D(s) (Part 2). The dose escalation phase is supported using an adaptive dose escalation strategy guided by the modified continual reassessment method (mCRM) based on a Bayesian Logistic Regression Model (BLRM) with escalation with overdose control (EWOC) principle. The mCRM design allows the use of all cumulative dose-limiting toxicities (DLT) data up to the current dose cohort.
In Part 1, subjects were enrolled in cohorts of daily oral doses at 50 mg, 100 mg, 200 mg (1×200 mg or 4×50 mg), 300 mg (3×100 mg or 6×50 mg), 400 mg (2×200 mg or 8×50 mg), and 600 mg (3×200 mg), and loading dosing cohorts—400 mg loading dose once daily for 14 days, followed by 300 mg once daily, and 300 mg loading dose twice daily for 7 days followed by 300 mg once daily. In Part 2, subjects received daily oral doses of 300 mg.
In Part 1, PK data were available in subjects receiving doses of 50 mg (1×50 mg), 100 mg (2×50 mg), 200 mg (4×50 mg or 1×200 mg), 300 mg (6×50 mg or 3×100 mg), 400 mg (8×50 mg or 2×200 mg), and 600 mg (3×200 mg). Pharmacokinetic data were also available from the loading dose regimens of 400 mg (8×50 mg) loading dose once daily for 14 days followed by 300 mg (6×50 mg) once daily, and 300 mg (6×50 mg) loading dose twice daily for 7 days followed by 300 mg (6×50 mg) once daily.

[1] = Cycle 1 Day 1, 200 mg capsule, cohort 3 × 200 mg, individual values, N = 2, listed as JNJ-67856633
[2] = Cycle 2 Day 1, 50 mg capsule, cohort 6 × 50 mg (300 mg QD), mean, listed as JNJ-67856633
[3] = Cycle 2 Day 1, 200 mg capsule, cohort 200 mg, individual values, N = 2, listed as JNJ-67856633
[4] = Cycle 2 Day 1, 200 mg capsule, cohort 3 × 200 mg, individual values, N = 2, listed as JNJ-67856633
[5] = Cycle 2 Day 1, cohort 6 × 50 mg BID > QD, individual values, N = 2, listed as JNJ-67856633
[6] = Cycle 2 Day 1 / Cycle 1 Day 1, 50 mg capsule, cohort 50 mg, mean
[7] = Cycle 2 Day 1 / Cycle 1 Day 1, cohort 2 × 50 mg, mean
[8] = Cycle 2 Day 1 / Cycle 1 Day 1, cohort 2 × 200 mg food adlib, mean
[9] = Cycle 2 Day 1 / Cycle 1 Day 1, cohort 2 × 200 mg, mean
[10] = Cycle 2 Day 1 / Cycle 1 Day 1, cohort 3 × 200 mg, individual values, listed as JNJ-67856633
[11] = Cycle 2 Day 1 / Cycle 1 Day 1, cohort 4 × 50 mg, mean
[12] = Cycle 2 Day 1 / Cycle 1 Day 1, cohort 6 × 50 mg, mean
[13] = Cycle 2 Day 1 / Cycle 1 Day 1, cohort 8 × 50 mg > 6 × 50 mg, mean
[14] = Cycle 2 Day 1 / Cycle 1 Day 1, cohort 8 × 50 mg, mean

In the case of `O=C(Nc1ccnc(C(F)(F)F)c1)c1cnn(-c2cccc3c(=O)[nH]ccc23)c1C(F)(F)F` [Compound A, 1-(1-oxo-1,2-dihydroisoquinolin-5-yl)-5-(trifluoromethyl)-N-[2-(trifluoromethyl)pyridin-4-yl]-1H-pyrazole-4-carboxamide], the AUCτ (Cycle 1 Day 1, 50 mg capsule, cohort 6 × 50 mg (300 mg QD), mean, n = 9, listed as JNJ-67856633) is reported as 152^c μg · h/mL, the Cmax (Cycle 1 Day 1, 50 mg capsule, cohort 6 × 50 mg (300 mg QD), mean, listed as JNJ-67856633) is reported as 8.81 µg/mL and the Tmax (Cycle 1 Day 1, 200 mg capsule, cohort 3 × 200 mg, individual values, N = 2) is reported as 3.00, 3.00 h. It also gave an AUCτ [1] of 76.6 µg·h/mL, a Cmax [1] of 4.50 µg/mL and a Cmin (Cycle 2 Day 1, 50 mg capsule, cohort 50 mg, mean) of 6.85 µg/mL. The Cmin (Cycle 2 Day 1, 50 mg capsule, cohort 2 × 50 mg, mean) was 15.6 µg/mL, the Cmin (Cycle 2 Day 1, 50 mg capsule, cohort 4 × 50 mg, Subject 100032 excluded, mean) was 30.4^e μg/mL and the Cmin (Cycle 2 Day 1, 50 mg capsule, cohort 6 × 50 mg (300 mg QD), mean) was 39.5 µg/mL. The AUCτ [2] was 1144 µg·h/mL, the Cmax [2] was 55.2 µg/mL and the Cmin (Cycle 2 Day 1, 50 mg capsule, cohort 8 × 50 mg, mean) was 55.6 µg/mL. The Cmax [3] was 14.5 µg/mL, the Cmin [3] was 15.5, μg/mL and 11.4 μg/mL and the Tmax [3] was 0.5 h. For the same compound, the Cmin (Cycle 2 Day 1, 200 mg capsule, cohort 2 × 200 mg food adlib, mean) was 33.3 µg/mL, the Cmin (Cycle 2 Day 1, 200 mg capsule, cohort 2 × 200 mg, mean) was 30.7 µg/mL and the AUCτ [4] was 458 µg·h/mL and 1811 µg·h/mL. The Cmax [4] was 21.2, μg/mL and 98.6 μg/mL, the Cmin [4] was 13.5 µg/mL and 71.2 µg/mL and the Tmax [4] was 0.00 h and 0.50 h. For the same compound, the Cmax (Cycle 2 Day 1, cohort 6 × 50 mg BID > QD (300 mg BID 7 days then 300 mg QD), individual values, N = 2) was “about 29.2 μg/mL; also recorded: about 67 μg/mL”, the Cmax (Cycle 2 Day 1, cohort 6 × 50 mg BID > QD (300 mg BID 7 days then 300 mg QD), individual values, N = 2, listed as JNJ-67856633) was 29.2, μg/mL and 67.0 μg/mL and the AUCτ (Cycle 2 Day 1, cohort 6 × 50 mg BID > QD, individual values, N = 2) was “about 651 μg · h/mL; also recorded: about 1406 μg · h/mL”. For the same compound, the AUCτ [5] was 651 µg·h/mL and 1406 µg·h/mL, the Cmin [5] was 26.1, μg/mL and 50.6 μg/mL and the Tmax [5] was 3.00, 3.00 h. For the same compound, the Cmin (Cycle 2 Day 1, cohort 8 × 50 mg > 6 × 50 mg, Subject 100070 excluded, mean) was 55.8^g μg/mL, the ARAUC [6] was 8.37 and the ARCmax [6] was 7.30. For the same compound, the ARAUC (Cycle 2 Day 1 / Cycle 1 Day 1, 200 mg capsule, cohort 200 mg) was 5.51^i, the ARCmax (Cycle 2 Day 1 / Cycle 1 Day 1, 200 mg capsule, cohort 200 mg, individual values, listed as JNJ-67856633) was 4.81, and 3.21 and the ARAUC [7] was 7.80. The ARCmax [7] was 6.56, the ARAUC [8] was 12.7 and the ARCmax [8] was 12.0. The ARAUC [9] was 9.35, the ARCmax [9] was 7.40 and the ARAUC [10] was 3.73 and 23.7. For the same compound, the ARCmax [10] was 2.72 and 21.9, the ARAUC [11] was 8.10 and the ARCmax [11] was 7.32. For the same compound, the ARCmax (Cycle 2 Day 1 / Cycle 1 Day 1, cohort 6 × 50 mg BID > QD) was 10.4^j, the ARAUC [12] was 8.50 and the ARCmax [12] was 7.32. The ARAUC [13] was 9.80^g, h, the ARCmax [13] was 7.7^g and the ARAUC [14] was 12.4^f. The ARCmax [14] was 11.3^f, the AUC (human, plasma, oral, 50 mg, Cycle 1 Day 1, 50 mg capsule, cohort 50 mg, mean) was 29.1 µg·h/mL and the Cmax (human, plasma, oral, 50 mg, Cycle 1 Day 1, 50 mg capsule, cohort 50 mg, mean, read-out: Cmax) was 1.6 µg/mL. The Tmax (human, plasma, oral, 50 mg, Cycle 1 Day 1, 50 mg capsule, cohort 50 mg, median, read-out: Tmax) was 3 h, the AUC (human, plasma, oral, 50 mg, Cycle 2 Day 1, 50 mg capsule, cohort 50 mg, mean) was 180 µg·h/mL and the Cmax (human, plasma, oral, 50 mg, Cycle 2 Day 1, 50 mg capsule, cohort 50 mg, mean, read-out: Cmax) was 8.74 µg/mL. For the same compound, the Tmax (human, plasma, oral, 50 mg, Cycle 2 Day 1, 50 mg capsule, cohort 50 mg, median, read-out: Tmax) was 2 h, the AUC (human, plasma, oral, 100 mg, Cycle 1 Day 1, 50 mg capsule, cohort 2 × 50 mg, mean) was 51.4 µg·h/mL and the Cmax (human, plasma, oral, 100 mg, Cycle 1 Day 1, 50 mg capsule, cohort 2 × 50 mg, mean, read-out: Cmax) was 3 µg/mL. The Tmax (human, plasma, oral, 100 mg, Cycle 1 Day 1, 50 mg capsule, cohort 2 × 50 mg, median, read-out: Tmax) was 4 h, the AUC (human, plasma, oral, 100 mg, Cycle 2 Day 1, 50 mg capsule, cohort 2 × 50 mg, mean) was 366 µg·h/mL and the Cmax (human, plasma, oral, 100 mg, Cycle 2 Day 1, 50 mg capsule, cohort 2 × 50 mg, mean, read-out: Cmax) was 19.9 µg/mL.
